Measurements reported in patent publication US20170007561A1, “CONTEMPORANEOUS, HETEROGENEOUSLY-ORIENTED, MULTI-TARGETED THERAPEUTIC MODIFICATION AND/OR MODULATION OF DISEASE BY ADMINISTRATION OF SULFUR-CONTAINING, AMINO ACID-SPECIFIC SMALL MOLECULES” (BioNumerik Pharmaceuticals, Inc., priority 2014, published 2017).
“Also recorded” adds a separate entry of the source.

Assays:
T790M EGFR kinase = T790M EGFR kinase (Homo sapiens, UniProt P00533, T790M); assay: EGFR kinase assay (ADP-glo, polyGT substrate), T790M mutant; type: biochemical
human cancer cell lines = assay: Paclitaxel- and platinum-induced cytotoxicity; type: cell-based
Excerpt: Tavocept mediates the non-enzymatic xenobiotic modification of sulfur-containing amino acid residues (e.g., cysteine) on proteins. As an engineered, non-naturally occurring agent (i.e., xenobiotic), Tavocept is autocatalytic and requires no protein cofactor to cause the xenobiotic modification of cysteine, but appears to be specific for cysteine residues located within a particular structural context (i.e., not all cysteines in a protein are so modified). Tavocept-mediated, xenobiotic modification represents a novel mechanism of action for a cancer treating agent and can be compared to a degree with post-translational modifications of cysteine residues in proteins (see, Table 3, below).

[1] = target: T1, recombinant human farnesyltransferase (Homo sapiens, UniProt P49354+P49356); assay: Farnesyltransferase Dansyl-GCVLS fluorescence assay; type: biochemical
T1 construct: purchased Abcam
Experimental: Tavocept-inhibited human farnesyltransferase-mediated transfer of farnesylpyrophosphate to the cysteine residue in a danyslated peptide substrate of sequence glycine-cysteine-valine-leucine-serine (designated—Dansyl-GCVLS) in vitro. See, FIG. 79. The assay reactions contained 25 nM recombinant human farnesyltransferase (Abcam), 10 μM farnesylpyrophosphate (SigmaAldrich), 3 μM Dansyl-GCVLS (NeoBioScience) in Tris buffer (50 mM, pH 7.5) containing 5 mM MgCl2, 10 μM ZnCl2, and 0.2% octyl-β-D-glucopyranoside. Total assay volumes were 50 μL and the reactions were initiated by the addition of FTase (5 μL of 250 nM stock was added to 45 μL of assay components listed above). The excitation wavelength was 340 nm (a 340 nm filter with 25 nm bandpass) and the emission wavelength was […] (505 nm filter with 20 nm bandpass) and the assay temperature was 25° C. Progress curves of the transfer of the farnesylpyrophosphate to the Dansyl-GCVLS substrate are shown in FIG. 79, Panel A and relative rates of the progress curve were determined and are shown in FIG. 79, Panel B.

[2] = target: T2, Mesenchymal Epithelial Transition (MET) Factor Kinase (Homo sapiens, UniProt P08581); assay: MET kinase activity (summary Table 27); type: biochemical
T2 construct: the kinase domain of MET (residues 956-end) was used in these experiments; GST (N); purchased SignalChem M52-18G-10; host or cells: Sf9

Recombinant human ERCC1 = target: T3, Recombinant human ERCC1 (Homo sapiens, UniProt P07992); assay: LC-MS of trypsin-digested ERCC1 after incubation with Tavocept; type: binding; settings: 20 mM Tavocept, LC-MS of tryptic fragments
T3 construct: 6xHis (N); purchased Creative BioMart; host or cells: E. coli
Experimental: Recombinant human ERCC1 (1 mg; 27.8 nanomoles, Creative BioMart) was reduced using a vast excess of dithiothreitol (DTT, 100 μl of a 500 mM stock) in ammonium bicarbonate (40 mM, pH 8.0) at 37° C. for 75 minutes (total reaction volume was 900 μL). […] Each 800 μl reaction was then chromatographed over a NAP10 column. This step removed unreacted Tavocept and was used for the buffer control simply to ensure that both samples received the same handling/manipulation during the course of the experiment. The elution volume from each NAP10 column was 1.2 mL. […] Trypsin digestion reactions were incubated for 1 hour at 30° C. and then for 17 hours at room temperature (23° C.). Following the Trypsin digest, the samples were lyophilized to dryness overnight and then resuspended in a volume of approximately 100 μL water and analyzed using LC-MS. A Symmetry C18 HPLC column (Waters, Franklin, Mass.; 3.5 μm; 4.6 mm×75 mm) and a Waters Alliance liquid chromatography system (Waters 2695, Franklin, Mass., USA) coupled to a Micromass single quadropole mass detector (Micromass ZMD, Manchester, UK) were used to analyze fragments from trypsin-digested human ERCC1. The mobile phase contained 0.1% of formic acid throughout the run and the flow rate was 0.35 mL/min. […]

[3] = system: bovine brain microtubule protein (α-/β-tubulin); assay: Microtubule protein polymerization assay (OD350); type: biochemical
[4] = target: T4, Anaplastic Lymphoma Kinase (ALK) (Homo sapiens, UniProt Q9UM73); assay: ALK kinase activity (summary Table 27); type: biochemical
T4 construct: illustrates the kinase domain of ALK (residues 1058-1623) which was used in these experiments; 6xHis (N); purchased Millipore lot 32944U-H (catalogue number not given); host or cells: baculovirus / Sf21

FTase = target: T5, FTase (Homo sapiens, UniProt P49354+P49356); assay: FTase-mediated farnesylation of Dansyl-GCVLS peptide; type: biochemical
T5 construct: purchased Abcam
Excerpt: Panel A: Progress curve showing FTase-mediated farnesylation of Dansyl-GCVLS peptide. Panel B: Relative rates from reactions shown in Panel A.

[5] = target: T6, human glutaredoxin (Grx1) (Homo sapiens, UniProt P35754); assay: X-ray crystallography of Tavocept-derived mesna adduct on Grx; type: binding; settings: Tavocept 40 mM, 4° C. overnight
T6 construct: 6xHis (TEV-cleavable) (N, cleaved yes); made in house; host or cells: E. coli BL21 (RIPL)
Excerpt: Diffraction data were collected at the Advanced Light Source (ALS) (Berkeley, Calif.). […] Data was processed using the program package MosFlm as part of the ccp4 program package.
Data was indexed, integrated, scaled and merged using the program Mosflm. […] The solution was consistent with one molecule in the crystal asymmetric unit. […] The structure solution is supported by contiguous electron density for the entire chain trace of each molecule, landmark side chain density features matching the amino acid sequence including cysteines, absence of phi-psi violations and final R/Rfree values in the normal range. […] Residues Gln39 and Glu55 have missing side-chain atoms in the final structures (side chain atoms CD, CG, OE1, NE2 and CD, OE1, OE2, respectively).

Sequence of T790M EGFR kinase (P00533 25-1210 T790M): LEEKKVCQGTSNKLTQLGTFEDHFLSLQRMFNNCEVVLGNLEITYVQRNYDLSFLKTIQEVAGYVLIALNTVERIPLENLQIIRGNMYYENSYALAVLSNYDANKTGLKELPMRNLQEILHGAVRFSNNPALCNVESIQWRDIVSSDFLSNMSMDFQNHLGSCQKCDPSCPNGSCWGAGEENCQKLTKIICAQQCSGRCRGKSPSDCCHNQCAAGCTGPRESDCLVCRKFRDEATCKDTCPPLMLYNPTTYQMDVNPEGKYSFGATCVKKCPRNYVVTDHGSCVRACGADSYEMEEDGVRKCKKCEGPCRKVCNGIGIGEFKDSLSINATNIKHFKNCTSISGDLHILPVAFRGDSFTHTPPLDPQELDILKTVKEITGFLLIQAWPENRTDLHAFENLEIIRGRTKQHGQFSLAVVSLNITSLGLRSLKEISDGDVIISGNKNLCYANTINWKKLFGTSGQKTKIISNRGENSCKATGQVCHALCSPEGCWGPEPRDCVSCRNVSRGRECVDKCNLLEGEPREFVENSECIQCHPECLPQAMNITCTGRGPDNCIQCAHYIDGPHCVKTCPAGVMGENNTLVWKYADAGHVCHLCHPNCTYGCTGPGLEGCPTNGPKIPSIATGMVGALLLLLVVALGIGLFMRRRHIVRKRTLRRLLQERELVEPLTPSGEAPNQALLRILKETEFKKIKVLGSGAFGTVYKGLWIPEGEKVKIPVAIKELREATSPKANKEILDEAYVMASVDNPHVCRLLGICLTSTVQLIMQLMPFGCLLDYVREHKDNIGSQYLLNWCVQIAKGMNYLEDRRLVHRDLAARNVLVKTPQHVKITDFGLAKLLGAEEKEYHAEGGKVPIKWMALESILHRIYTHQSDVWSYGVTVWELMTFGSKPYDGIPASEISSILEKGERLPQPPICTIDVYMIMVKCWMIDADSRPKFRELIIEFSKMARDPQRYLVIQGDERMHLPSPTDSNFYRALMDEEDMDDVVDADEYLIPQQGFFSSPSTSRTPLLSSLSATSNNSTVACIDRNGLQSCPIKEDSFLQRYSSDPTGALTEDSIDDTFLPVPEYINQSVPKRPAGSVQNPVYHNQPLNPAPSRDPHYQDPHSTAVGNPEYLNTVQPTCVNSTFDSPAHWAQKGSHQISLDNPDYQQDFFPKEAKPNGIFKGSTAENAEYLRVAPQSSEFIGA
T3 sequence (P07992 whole entry, the tested form may be a part): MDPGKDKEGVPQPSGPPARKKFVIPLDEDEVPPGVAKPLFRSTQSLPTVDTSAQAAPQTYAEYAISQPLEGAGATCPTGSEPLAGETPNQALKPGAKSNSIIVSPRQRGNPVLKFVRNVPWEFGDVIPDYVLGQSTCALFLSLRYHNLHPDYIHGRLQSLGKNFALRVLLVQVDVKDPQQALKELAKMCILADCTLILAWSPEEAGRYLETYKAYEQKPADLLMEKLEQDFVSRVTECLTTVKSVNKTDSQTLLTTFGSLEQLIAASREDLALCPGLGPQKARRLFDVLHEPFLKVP
T4 sequence (Q9UM73 1058-1620 limits assumed): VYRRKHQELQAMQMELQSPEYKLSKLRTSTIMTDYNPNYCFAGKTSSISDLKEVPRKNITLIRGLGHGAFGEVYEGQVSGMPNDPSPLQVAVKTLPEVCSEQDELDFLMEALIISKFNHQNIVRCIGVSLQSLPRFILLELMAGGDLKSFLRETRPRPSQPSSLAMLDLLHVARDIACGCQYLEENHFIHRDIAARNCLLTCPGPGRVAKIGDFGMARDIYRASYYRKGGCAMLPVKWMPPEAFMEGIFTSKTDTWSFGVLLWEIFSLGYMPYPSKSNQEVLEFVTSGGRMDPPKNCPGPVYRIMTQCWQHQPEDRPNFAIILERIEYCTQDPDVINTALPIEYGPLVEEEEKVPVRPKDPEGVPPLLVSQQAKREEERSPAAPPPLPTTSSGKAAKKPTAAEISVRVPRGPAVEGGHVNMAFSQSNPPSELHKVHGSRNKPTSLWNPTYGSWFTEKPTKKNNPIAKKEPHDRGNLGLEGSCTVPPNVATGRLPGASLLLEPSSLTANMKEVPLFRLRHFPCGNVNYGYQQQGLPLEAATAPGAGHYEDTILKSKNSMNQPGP
T1 sequence (P49356 whole entry, one chain of several): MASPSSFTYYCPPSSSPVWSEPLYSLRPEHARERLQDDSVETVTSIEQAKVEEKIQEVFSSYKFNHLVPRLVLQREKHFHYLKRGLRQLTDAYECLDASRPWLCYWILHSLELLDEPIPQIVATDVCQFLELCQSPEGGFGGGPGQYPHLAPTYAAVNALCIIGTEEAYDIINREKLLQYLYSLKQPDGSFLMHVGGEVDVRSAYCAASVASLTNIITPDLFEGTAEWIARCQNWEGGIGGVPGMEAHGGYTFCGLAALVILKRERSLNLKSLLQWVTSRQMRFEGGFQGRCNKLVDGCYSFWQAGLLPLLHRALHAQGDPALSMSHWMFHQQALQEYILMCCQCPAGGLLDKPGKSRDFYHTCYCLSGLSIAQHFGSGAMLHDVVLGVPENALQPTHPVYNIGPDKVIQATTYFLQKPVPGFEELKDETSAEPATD
T5 sequence (P49356 whole entry, one chain of several): as above
T6 sequence (P35754 whole entry): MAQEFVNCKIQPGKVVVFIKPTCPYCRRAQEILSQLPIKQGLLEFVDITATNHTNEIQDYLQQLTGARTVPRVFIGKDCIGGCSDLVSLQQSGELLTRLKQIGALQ
T2 sequence (P08581 956-1390 limits assumed): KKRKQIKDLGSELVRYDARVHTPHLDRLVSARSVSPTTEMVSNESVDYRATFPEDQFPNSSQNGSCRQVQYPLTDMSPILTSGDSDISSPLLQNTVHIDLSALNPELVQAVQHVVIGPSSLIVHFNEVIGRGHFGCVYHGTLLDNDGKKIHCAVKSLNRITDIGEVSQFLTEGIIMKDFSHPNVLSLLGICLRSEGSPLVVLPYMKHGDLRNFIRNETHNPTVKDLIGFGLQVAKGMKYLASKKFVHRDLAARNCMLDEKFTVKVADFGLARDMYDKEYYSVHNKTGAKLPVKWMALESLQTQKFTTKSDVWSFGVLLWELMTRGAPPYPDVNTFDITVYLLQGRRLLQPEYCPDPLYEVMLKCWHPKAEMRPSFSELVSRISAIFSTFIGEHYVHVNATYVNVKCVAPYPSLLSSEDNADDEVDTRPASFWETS

## O=S(=O)([O-])CCSSCCS(=O)(=O)[O-].[Na+].[Na+] [Tavocept, disodium 2,2′-dithio-bis-ethane sulfonate]
T790M EGFR kinase; 10 μM or 100 μM ATP, physiological concentrations (<20 mM) of Tavocept
  inhibition of T790M EGFR kinase: did not notably inhibit
T790M EGFR kinase; Tavocept alone, 10 μM ATP
  inhibitory activity on T790M EGFR kinase activity: essentially no inhibitory activity
T790M EGFR kinase; Tavocept in combination with Erlotinib, 10 μM ATP
  effect on Erlotinib inhibition of T790M EGFR kinase: strongly potentiated
Human cancer cell lines
  interference with paclitaxel- and platinum-induced cytotoxicity: not to interfere
[1]
  Inhibition of farnesylation: inhibits farnesylation in a concentration-dependent manner
[2]
  Cellular consequence of BNP7787-modification and/or modulation: MET: Modification of non-active site cysteine(s) resulting in enzyme
Recombinant human ERCC1
  ERCC1 cysteine residue carrying Tavocept-derived mesna adduct: Cys238; also recorded: Cys274
[3]; 12 mM Tavocept, qualitative
  inhibition of paclitaxel promoted microtubule protein polymerization: approximately 50%
[3]; Tavocept 1, 4, 8, 12 and 16 mM, paclitaxel 10 μM
  effect on paclitaxel-promoted microtubule protein hyperpolymerization: inhibit paclitaxel-promoted microtubule protein hyperpolymerization in a dose-dependent manner; also recorded: normalizes
[3]; Tavocept 4, 6, 8, and 10 mM preincubated with microtubule protein on ice for 20 minutes
  effect on GTP-catalyzed polymerization of microtubule protein: dose-dependent inhibitory effect; also recorded: inhibit GTP-catalyzed polymerization; also recorded: modulate tubulin polymerization in a concentration dependent manner
[3]; Tavocept 6, 8, 10 and 12 mM
  effect on paclitaxel/GTP/MgCl2-catalyzed microtubule protein hyperpolymerization: inhibit paclitaxel/GTP/MgCl2-catalyzed microtubule protein hyperpolymerization in a dose dependent manner
[3]; paclitaxel 10 μM
  Tavocept concentration at which final polymerization with paclitaxel was essentially equal to GTP control: ≥ 6 mM
  Tavocept concentrations that reproducibly inhibit paclitaxel promoted hyperpolymerization: > 1 mM
[3]; paclitaxel/GTP/MgCl2 10 μM/1 mM/1 mM
  Tavocept concentrations giving net polymerization equivalent to GTP/MgCl2 only control: 6 to 8 mM
[4]
  Cellular consequence of BNP7787-modification and/or modulation: ALK: BNP7787 disrupts/blocks ATP binding site resulting in inhibition
FTase
  effect on FTase activity: Inhibition of FTase activity
[5]
  Mesna adduct sites on Grx by X-ray: Cys7 and Cys82
